{"source": "ChEMBL document CHEMBL3992481", "about": "(2016)", "key": {"[1]": {"tested_on": "Mycobacterium tuberculosis", "assay": "Antitubercular activity against Mycobacterium tuberculosis H37Rv assessed as cell growth inhibition by microbroth dilution assay", "format": "functional"}, "[2]": {"tested_on": "Mycobacterium tuberculosis", "assay": "Antitubercular activity against Mycobacterium tuberculosis H37Rv", "format": "functional"}, "[3]": {"molecular_target": "T1, Esterase LipI (Mycobacterium tuberculosis (strain ATCC 25618 / H37Rv)) (UniProt P71668)", "T1 sequence (whole entry)": "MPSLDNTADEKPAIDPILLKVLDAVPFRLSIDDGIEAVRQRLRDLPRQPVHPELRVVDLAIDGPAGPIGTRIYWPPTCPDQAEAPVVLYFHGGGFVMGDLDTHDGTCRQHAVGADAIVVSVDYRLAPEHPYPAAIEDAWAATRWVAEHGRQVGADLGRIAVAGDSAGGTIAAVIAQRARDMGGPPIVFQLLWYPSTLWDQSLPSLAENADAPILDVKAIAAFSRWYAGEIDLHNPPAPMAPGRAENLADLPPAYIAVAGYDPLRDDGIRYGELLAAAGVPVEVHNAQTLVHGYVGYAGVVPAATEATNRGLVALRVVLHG", "assay": "Competitive binding affinity to Mycobacterium tuberculosis H37Rv ATCC 25618 lipase-I at 60 uM preincubated for 60 mins followed by La-1 probe addition measured after 30 mins by ABPP method"}, "[4]": {"tested_on": "Mycobacterium tuberculosis H37Rv", "assay": "Inhibition of lipase in Mycobacterium tuberculosis H37Rv infected in human monocyte derived macrophages assessed as inhibition of bacterial growth treated for 7 days starting from 4 day post infection relative to control"}, "[5]": {"molecular_target": "T2, Probable lipase/esterase LipG (Mycobacterium tuberculosis (strain ATCC 25618 / H37Rv)) (UniProt P96935)", "T2 sequence (whole entry)": "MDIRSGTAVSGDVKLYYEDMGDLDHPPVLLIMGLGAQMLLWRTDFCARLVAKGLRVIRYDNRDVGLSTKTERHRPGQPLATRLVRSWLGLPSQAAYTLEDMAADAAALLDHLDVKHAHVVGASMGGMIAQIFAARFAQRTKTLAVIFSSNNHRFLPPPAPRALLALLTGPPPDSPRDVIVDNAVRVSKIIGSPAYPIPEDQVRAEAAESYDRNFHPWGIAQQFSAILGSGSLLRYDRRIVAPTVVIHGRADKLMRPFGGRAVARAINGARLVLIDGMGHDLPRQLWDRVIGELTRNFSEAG", "assay": "Competitive binding affinity to Mycobacterium tuberculosis H37Rv ATCC 25618 lipase-G at 60 uM preincubated for 60 mins followed by La-1 probe addition measured after 30 mins by ABPP method"}, "[6]": {"tested_on": "Mycobacterium tuberculosis H37Rv", "assay": "Ratio of MIC for inhibition of lipase in Mycobacterium tuberculosis H37Rv assessed as cell growth inhibition in absence of vancomycin to MIC for inhibition of lipase in Mycobacterium tuberculosis H37Rv assessed as cell growth inhibition in presence of vancomycin"}, "[7]": {"molecular_target": "T3, Putative acetyl-hydrolase LipR (Mycobacterium tuberculosis (strain ATCC 25618 / H37Rv)) (UniProt P9WK85)", "T3 sequence (whole entry)": "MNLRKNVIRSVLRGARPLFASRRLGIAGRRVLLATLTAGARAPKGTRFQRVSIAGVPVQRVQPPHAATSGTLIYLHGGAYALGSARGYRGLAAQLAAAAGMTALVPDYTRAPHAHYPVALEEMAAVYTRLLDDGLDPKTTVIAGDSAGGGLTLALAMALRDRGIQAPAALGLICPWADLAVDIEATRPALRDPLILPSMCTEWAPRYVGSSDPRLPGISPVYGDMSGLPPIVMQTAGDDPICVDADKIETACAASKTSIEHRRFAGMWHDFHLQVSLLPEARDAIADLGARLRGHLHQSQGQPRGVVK", "assay": "Competitive binding affinity to Mycobacterium tuberculosis H37Rv ATCC 25618 lipaseR at 60 uM preincubated for 60 mins followed by La-1 probe addition measured after 30 mins by ABPP method"}, "[8]": {"molecular_target": "T4, Probable carboxylic ester hydrolase LipM (Mycobacterium tuberculosis (strain ATCC 25618 / H37Rv)) (UniProt Q50681)", "T4 sequence (whole entry)": "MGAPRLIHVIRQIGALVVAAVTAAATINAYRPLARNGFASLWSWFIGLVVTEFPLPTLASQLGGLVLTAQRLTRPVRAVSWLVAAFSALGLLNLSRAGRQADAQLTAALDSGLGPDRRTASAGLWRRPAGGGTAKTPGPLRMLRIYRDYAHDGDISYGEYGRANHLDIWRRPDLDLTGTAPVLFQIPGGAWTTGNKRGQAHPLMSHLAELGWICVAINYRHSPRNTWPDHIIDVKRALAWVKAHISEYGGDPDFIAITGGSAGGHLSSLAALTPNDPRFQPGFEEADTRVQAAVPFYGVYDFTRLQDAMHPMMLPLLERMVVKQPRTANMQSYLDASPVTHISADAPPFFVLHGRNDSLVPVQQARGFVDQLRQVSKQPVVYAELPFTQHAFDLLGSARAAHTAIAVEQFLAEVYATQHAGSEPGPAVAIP", "assay": "Competitive binding affinity to Mycobacterium tuberculosis H37Rv ATCC 25618 lipase-M at 60 uM preincubated for 60 mins followed by La-1 probe addition measured after 30 mins by ABPP method"}, "[9]": {"tested_on": "Mycobacterium tuberculosis H37Rv", "assay": "Inhibition of lipase in Mycobacterium tuberculosis H37Rv expressing GFP assessed as cell growth inhibition at 4 uM by fluorescence assay"}, "[10]": {"molecular_target": "T5, Probable esterase LipO (Mycobacterium tuberculosis (strain ATCC 25618 / H37Rv)) (UniProt O06832)", "T5 sequence (whole entry)": "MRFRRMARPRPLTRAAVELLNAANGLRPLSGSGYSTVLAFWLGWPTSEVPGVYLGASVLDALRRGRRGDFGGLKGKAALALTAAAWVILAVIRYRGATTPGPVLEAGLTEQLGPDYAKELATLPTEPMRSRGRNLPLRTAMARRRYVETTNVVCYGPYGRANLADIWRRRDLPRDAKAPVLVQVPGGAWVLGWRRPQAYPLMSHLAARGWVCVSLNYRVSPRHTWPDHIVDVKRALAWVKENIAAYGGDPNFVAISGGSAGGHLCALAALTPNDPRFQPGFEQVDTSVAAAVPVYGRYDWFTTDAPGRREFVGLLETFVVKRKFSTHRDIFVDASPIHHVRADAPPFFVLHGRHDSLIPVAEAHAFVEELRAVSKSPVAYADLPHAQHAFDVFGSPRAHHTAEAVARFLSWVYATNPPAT", "assay": "Competitive binding affinity to Mycobacterium tuberculosis H37Rv ATCC 25618 lipase-O at 60 uM preincubated for 60 mins followed by La-1 probe addition measured after 30 mins by ABPP method"}, "[11]": {"molecular_target": "T6, Carboxylic ester hydrolase LipN (Mycobacterium tuberculosis (strain ATCC 25618 / H37Rv)) (UniProt P95125)", "T6 sequence (whole entry)": "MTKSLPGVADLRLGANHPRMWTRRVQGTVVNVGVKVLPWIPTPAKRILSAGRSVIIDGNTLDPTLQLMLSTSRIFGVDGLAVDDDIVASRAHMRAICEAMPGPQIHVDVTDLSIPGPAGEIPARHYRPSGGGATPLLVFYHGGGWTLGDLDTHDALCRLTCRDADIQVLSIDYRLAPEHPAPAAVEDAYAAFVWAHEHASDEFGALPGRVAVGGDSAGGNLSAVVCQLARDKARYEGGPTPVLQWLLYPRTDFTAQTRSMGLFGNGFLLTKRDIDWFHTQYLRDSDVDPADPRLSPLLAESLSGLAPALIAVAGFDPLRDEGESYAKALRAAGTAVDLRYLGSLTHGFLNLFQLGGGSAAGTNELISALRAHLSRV", "assay": "Competitive binding affinity to Mycobacterium tuberculosis H37Rv ATCC 25618 lipaseN at 60 uM preincubated for 60 mins followed by La-1 probe addition measured after 30 mins by ABPP method"}, "[12]": {"tested_on": "Mycobacterium tuberculosis H37Rv", "assay": "Inhibition of lipase in Mycobacterium tuberculosis H37Rv assessed as cell growth inhibition after 7 days by resazurin assay"}, "[13]": {"molecular_target": "T7, Carboxylic ester hydrolase (Mycobacterium tuberculosis (strain ATCC 25618 / H37Rv)) (UniProt O53488)", "T7 sequence (whole entry)": "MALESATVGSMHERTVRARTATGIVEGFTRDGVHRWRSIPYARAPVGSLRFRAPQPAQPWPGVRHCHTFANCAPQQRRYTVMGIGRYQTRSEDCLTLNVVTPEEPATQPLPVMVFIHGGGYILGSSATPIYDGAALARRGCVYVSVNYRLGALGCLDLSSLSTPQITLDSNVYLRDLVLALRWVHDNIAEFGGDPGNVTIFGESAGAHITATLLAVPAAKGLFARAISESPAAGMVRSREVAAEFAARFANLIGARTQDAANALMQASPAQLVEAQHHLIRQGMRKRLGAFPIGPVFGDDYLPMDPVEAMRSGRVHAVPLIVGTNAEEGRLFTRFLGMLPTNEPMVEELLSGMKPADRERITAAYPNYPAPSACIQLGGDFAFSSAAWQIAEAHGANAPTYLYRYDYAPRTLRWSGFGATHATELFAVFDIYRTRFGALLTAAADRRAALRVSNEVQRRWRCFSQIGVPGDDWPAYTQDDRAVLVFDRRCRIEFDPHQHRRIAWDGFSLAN", "assay": "Competitive binding affinity to Mycobacterium tuberculosis H37Rv ATCC 25618 lipase-T at 60 uM preincubated for 60 mins followed by La-1 probe addition measured after 30 mins by ABPP method"}, "[14]": {"tested_on": "Mycobacterium tuberculosis H37Rv", "assay": "Ratio of MIC for inhibition of lipase in Mycobacterium tuberculosis H37Rv assessed as cell growth inhibition in absence of lalistat to MIC for inhibition of lipase in Mycobacterium tuberculosis H37Rv assessed as cell growth inhibition in presence of lalistat"}, "[15]": {"molecular_target": "T3, Putative acetyl-hydrolase LipR (Mycobacterium tuberculosis (strain ATCC 25618 / H37Rv))", "assay": "Binding affinity to N-terminal His6-tagged Mycobacterium tuberculosis H37Rv ATCC 25618 lipase-R at 30 uM after 30 mins by RhN3 staining based fluorescence assay"}}, "note": "Active and inactive are the calls of the source. No cut-off for these calls is given here.", "data": [{"molecule": "CO[C@H]1/C=C/O[C@@]2(C)Oc3c(C)c(O)c4c(O)c(c(/C=N/N5CCN(C)CC5)c(O)c4c3C2=O)NC(=O)/C(C)=C\\C=C\\[C@H](C)[C@H](O)[C@@H](C)[C@@H](O)[C@@H](C)[C@H](OC(C)=O)[C@@H]1C", "note": "[RIFAMPIN]", "values": [{"measurement": "MIC", "setting": "[1]", "value": "0.04 to 1", "unit": "µM"}]}, {"molecule": "CCCCCCCCCCC[C@@H](C[C@@H]1OC(=O)[C@H]1CCCCCC)OC(=O)[C@H](CC(C)C)NC=O", "note": "[ORLISTAT]", "values": [{"measurement": "MIC", "setting": "[2]", "value": 30, "unit": "µM"}]}, {"molecule": "NNC(=O)c1ccncc1", "note": "[ISONIAZID]", "values": [{"measurement": "MIC", "setting": "[1]", "value": "0.04 to 1", "unit": "µM"}]}, {"molecule": "O=C(Oc1nsnc1N1CCCCC1)N1CCCCC1", "values": [{"measurement": "Activity", "setting": "[3]", "value": "Active"}, {"measurement": "growth inhibition (GI)", "setting": "[4]", "value": 55, "unit": "%"}, {"measurement": "Activity", "setting": "[5]", "value": "Active"}, {"measurement": "Ratio", "setting": "[6]", "value": 4}, {"measurement": "Activity", "setting": "[7]", "value": "Active"}, {"measurement": "Activity", "setting": "[8]", "value": "Active"}, {"measurement": "growth inhibition (GI)", "setting": "[9]", "value": "Active"}, {"measurement": "Activity", "setting": "[10]", "value": "Active"}, {"measurement": "Activity", "setting": "[11]", "value": "Active"}, {"measurement": "MIC", "setting": "[12]", "value": "25 to 50", "unit": "µM"}, {"measurement": "Activity", "setting": "[13]", "value": "Active"}]}, {"molecule": "CN[C@H](CC(C)C)C(=O)N[C@H]1C(=O)N[C@@H](CC(N)=O)C(=O)N[C@H]2C(=O)N[C@H]3C(=O)N[C@H](C(=O)N[C@H](C(=O)O)c4cc(O)cc(O)c4-c4cc3ccc4O)[C@H](O)c3ccc(c(Cl)c3)Oc3cc2cc(c3O[C@@H]2O[C@H](CO)[C@@H](O)[C@H](O)[C@H]2O[C@H]2C[C@](C)(N)[C@H](O)[C@H](C)O2)Oc2ccc(cc2Cl)[C@H]1O", "values": [{"measurement": "Ratio", "setting": "[14]", "value": 16}]}, {"molecule": "C#CC1CCN(C(=O)Oc2nsnc2N2CCCCC2)CC1", "values": [{"measurement": "Activity", "setting": "[15]", "value": "Active"}, {"measurement": "growth inhibition (GI)", "setting": "[12]", "value": "Active"}]}]}
